What is called EC50 is the midpoint of the concentration-response curve.

One assay has as its system primary hepatocytes isolated from rats. The experiment in a line: Hepatocyte protective effect against doxorubicin-induced hepatocyte toxicity (WST-1 viability). Particulars: Hepatocyte; against doxorubicin treatment; primary rat hepatocytes pretreated with compound 30 min; viability by WST-1 after 24-48 hours; concentration giving 50% of maximum protective effect. It is filed as cell-based. The procedure: Various endogenous/exogenous attacks on cells trigger the mechanisms of cell death which is broadly classified into two types—i.e., apoptosis or necrosis. Using these cell death mechanisms, in the present experimental example, primary hepatocytes isolated from rats were treated with drugs which were clinically shown to result in serious side-effects of hepatocyte toxicity or various chemicals which cause cell death, and the compounds synthesized in the Examples were estimated for their hepatocyte protective effects, after 24-48 hours. The substances used to cause hepatocyte death include CCl4, ActD, H2O2, doxorubicin, anti-Fas Ab/Actinomycin D, acetaminophen, EtOH, CdCl2, palmitate, stearate, cyclophosphamide, terfenadine, diclofenac, simvastatin, and adefovir. Primary hepatocytes were isolated using the method of Seglen P O (Experimental Cell Research 74 (1972), pp. 450-454). Briefly, hepatocytes were isolated according to the two-step collagenase perfusion method, and dead cells were removed by low speed (500 rpm) centrifugation for 10 min using percoll gradient (Kreamer B L et al., In Vitro Cellular & Developmental Biology 22 (1986), pp. 201-211). During this step, the viability of cells was maintained 90% or above. The cells were suspended in HepatoZYME media (Gibco BRL), and the number of cells was counted. 1.5×10^4 cells in 100 μl were placed into the collagen-coated 96-well plate (BD Biocoat), and adhered on the bottom for 3-4 hours.
In order to assess the hepatocyte protective effect, the above adhered cells were pretreated with the Example compounds for 30 min. At this time, the concentration of the Example compounds was serially diluted by 2-fold or 3-fold over 5 steps starting from 30 μM, 10 μM or 1 μM depending on the experiments, and the final concentration of DMSO was adjusted to 0.2%. 30 min after the treatment by the compounds, the cells were treated by the substances deriving hepatocyte death or hepatotoxic drugs at the concentrations indicated in Table 1. After 24-48 hours, the viability of cells was determined to estimate the hepatocyte protective effects. The viability of cells was determined using the WST-1 (MK-400, […]) method by the absorbance at 440 nm. Hepatocyte protective effects of the Example compounds were represented by “EC50” which was calculated from measured values. “EC50” herein means the concentration of the compound at which 50% of maximum protective effect is observed in the experiment.
For orientation: Tetrazolium dyes change colour on reduction, which living cells bring about.
On to `CCCCCNc1cc(Cl)cc2cc(C(=O)N3CCC(CN)C3)[nH]c12` (centres unmarked) [Example 50, (3-Aminomethyl-pyrrolidin-1-yl)-(5-chloro-7-pentylamino-1H-indol-2-yl]-methanone], for which the concentration giving a half-maximal response (EC50) is 175 nM.

`Cc1cc(NC2CCOCC2)c2[nH]c(C(=O)N3CC[C@H](C(=O)O)C3)cc2c1` [Example 38, (S)-1-[5-methyl-7-(tetrahydropyran-4-ylamino)-1H-indol-2-carbonyl]-pyrrolidin-3-carboxylic acid]: the EC50 was found to be 330 nM.

As to `O=C(Nc1cccc(CN2CCOCC2)c1)c1cc2cc(Cl)cc(NC3CCNCC3)c2[nH]1` [Example 13, 5-Chloro-7-(piperidin-4-ylamino)-1H-indol-2-carboxylic acid (3-morpholin-4-ylmethyl-phenyl)-amide], the EC50 was 150 nM.

For `N[C@H]1CCN(C(=O)c2cc3cc(Cl)cc(NC4CCCC4)c3[nH]2)C1` [Example 55, ((S)-3-amino-pyrrolidin-1-yl)-(5-chloro-7-cyclopentylamino-1H-indol-2-yl}-methanone], the EC50 worked out at 430 nM.

With `Cc1cc(NC2CCCC2)c2[nH]c(C(=O)N3CCNCC3)cc2c1` [Example 29, (7-Cyclopentylamino-5-methyl-1H-indol-2-yl)-piperazin-4-yl-methanone], the EC50 turned out to be 200 nM.

Consider `CC(C)CCN(CCC(C)C)c1cc(Cl)cc2cc(C(=O)N3C[C@@H](CN4CCCC4)[C@H](c4ccc(F)cc4F)C3)[nH]c12` [Example 60, {7-[Bis-(3-methyl-butyl)-amino]-5-chloro-1H-indol-2-yl}-[(3R,4R)-3-(2,4-difluoro-phenyl)-4-pyrrolidin-1-ylmethyl-pyrrolidin-1-yl]-methanone], for which the EC50 was determined as 250 nM.

With `CC(C)CCNc1cc(Cl)cc2cc(C(=O)N3CCC(CN)C3)[nH]c12` (centres unmarked) [Example 46, (3-Aminomethyl-pyrrolidin-1-yl)-[5-chloro-7-(3-methyl-butylamino)-1H-indol-2-yl]-methanone], the EC50 stood at 290 nM.

As for `NCC1CCN(C(=O)c2cc3cc(Cl)cc(N(CC4CC4)CC4CC4)c3[nH]2)C1` (centres unmarked) [Example 53, (3-Aminomethyl-pyrrolidin-1-yl)-[7-(bis-cyclopropylmethyl-amino)-5-chloro-1H-indol-2-yl]-methanone], the EC50 came to 710 nM.

Still in this assay, the particulars now being: against doxorubicin treatment; primary rat hepatocytes pretreated with compound 30 min; viability by WST-1 after 24-48 hours; concentration giving 50% of maximum protective effect.
For the compound `NCC1CCCN(C(=O)c2cc3cc(Cl)cc(NC4CCCC4)c3[nH]2)C1` (centres unmarked) [Example 52], the EC50 is 210 nM.

Regarding `NCC1CCN(C(=O)c2cc3cc(Cl)cc(NCCc4ccccc4)c3[nH]2)C1` (centres unmarked) [Example 49, (3-Aminomethyl-pyrrolidin-1-yl)-(5-chloro-7-penethylamino-1H-indol-2-yl]-methanone], the EC50 came out at 330 nM.

In the case of `NCC1CCN(C(=O)c2cc3cc(Cl)cc(NC4CCCCC4)c3[nH]2)C1` (centres unmarked) [Example 51], the EC50 turned out to be 330 nM.

(Values after patent publication US9868731B2, “Indole amide compound as inhibitor of necrosis” (LG CHEM, LTD., priority 2013, dated 2018).)
